Data as given in paper PMC10053710, “Influence of Lipidation Pattern of the KR12 Fragment of Peptide LL-37 on Its Antibacterial and Hemolytic Activities” (International Journal of Molecular Sciences, 2023).
Values after ≈ are worked out from the molar mass of the structure shown. Where a SMILES comes first, the peptide text is derived from it. The star is where a group is joined. Octanoyl = CCCCCCCC(=O)*

Assays:
[1] = test system: Enterococcus faecium ATCC 700221; assay type: cell-based; conditions: ATCC 700221, 18 h
Protocol: (§1) Tests of the antibacterial activity were carried out as we just described. Briefly, for assays, the following strains of ESKAPE bacteria were chosen: Acinetobacter baumannii ATCC BAA-1605, Enterococcus faecium ATCC 700221, Klebsiella aerogenes ATCC 13048 (formerly Enterobacter aerogenes), Klebsiella pneumoniae ATCC 700603, and Pseudomonas aeruginosa ATCC 9027. Moreover, the reference strains of Staphylococcus aureus were used: S. aureus ATCC 25923, S. aureus ATCC 6538, S. aureus ATCC 33591 (MRSA), S. aureus ATCC 9144, and S. aureus ATCC 12598. Before experiments, all the strains were stored at −80 °C in Roti®-Store cryo vials (Carl Roth GmbH, Karlsruhe, Germany). To evaluate the activity of the compounds, bacteria were transferred into fresh Mueller–Hinton medium (Becton Dickinson, Warszawa, Poland) and incubated for 24 h at 37 °C. In the next step, bacterial inoculums were seeded on Mueller–Hinton agar plates (BioMaxima SA, Lublin, Poland) and incubated again for 24 h. The MIC values were determined using the broth microdilution method according to the Clinical and Laboratory Standards Institute Protocol. The initial inoculums of bacteria (0.5 × 10^5 colony forming units (CFU)/mL) prepared in Mueller–Hinton broth were exposed to the ranging concentrations of peptides (1–512 µg/mL). The experiments were conducted on 96-well microtiter plates, with a final volume of 100 µL. The inoculum densities were checked spectrophotometrically (Multiskan™ GO Microplate Spectrophotometer, Thermo Scientific, Waltham, MA, USA) at 600 nm. The results were read after incubation for 18 h at 37 °C. The MIC values were the lowest concentration at which a visible growth of microorganisms was inhibited. All experiments were conducted in triplicate. Moreover, positive (growth) and negative (sterility) controls were included.

[2] = test system: Pseudomonas aeruginosa ATCC 9027; assay type: cell-based; conditions: ATCC 9027, 18 h
Protocol: as §1

[3] = test system: Klebsiella pneumoniae ATCC 700603; assay type: cell-based; conditions: ATCC 700603, 18 h
Protocol: as §1

[4] = test system: Klebsiella aerogenes ATCC 13048; assay type: cell-based; conditions: ATCC 13048, 18 h
Protocol: as §1

S. aureus ATCC 9144 = assay type: cell-based, Staphylococcus aureus; conditions: ATCC 9144, 18 h
Protocol: as §1

S. aureus ATCC 12598 = assay type: cell-based, Staphylococcus aureus; conditions: ATCC 12598, 18 h
Protocol: as §1

S. aureus ATCC 25923 = assay type: cell-based, Staphylococcus aureus; conditions: ATCC 25923, 18 h
Protocol: as §1

S. aureus ATCC 6538 = assay type: cell-based, Staphylococcus aureus; conditions: ATCC 6538, 18 h
Protocol: as §1

[5] = test system: S. aureus ATCC 33591 (MRSA); assay type: cell-based, Staphylococcus aureus; conditions: ATCC 33591, 18 h
Protocol: as §1

[6] = 18 h
[7] = test system: human red blood cells (hRBCs); experiment: Hemolysis assay; conditions: 4% (v/v) erythrocytes in PBS, peptides 1–512 µg/mL, 1 h at 37 °C, hemoglobin at 540 nm, 100% = 1% Triton-X 100; ≥ means less than 5% hemolysis up to 512 µg/mL
Protocol: To facilitate a comparison of hemolytic activity between the analogs, MHC5 values were determined. MHC5 is the minimum hemolytic concentration of the compounds that caused the 5% hemolysis of hRBCs.
Briefly, the fresh hRBCs with EDTA as anticoagulant were rinsed three times with PBS through centrifugation at 800× g for 10 min and resuspended in PBS. The serial dilution of peptides (1–512 µg/mL) was prepared in PBS on 96-well plates. Then, the stock RBCs solution was added to the plates to reach a final volume of 100 µL with a 4% concentration of erythrocytes (v/v). The control wells for 0 (RBCs in PBS) and 100% (RBCs in 1% Triton-X 100) hemolysis were also prepared. Then, the plates were incubated for 1 h at 37 °C and centrifuged at 800× g for 10 min at 4 °C (Sorvall ST 16R Centrifuge, Thermo Scientific, Waltham, MA, USA). After centrifugation, the supernatant was carefully transferred to new microtiter plates and the release of hemoglobin was measured at 540 nm (Multiskan™ GO Microplate Spectrophotometer, Thermo Scientific, Waltham, MA, USA). The percentage of hemolysis was calculated based on wells with 100% hemolysis.

Row | SMILES | MIC E. faecium [1] | MIC P. aeruginosa [2] | MIC K. pneumoniae [3] | MIC K. aerogenes [4] | MIC S. aureus 9144 (S. aureus ATCC 9144) | MIC S. aureus 12598 (S. aureus ATCC 12598) | MIC S. aureus 25923 (S. aureus ATCC 25923) | MIC S. aureus 6538 (S. aureus ATCC 6538) | MIC S. aureus 33591 [5] | MIC A. baumannii [6] | MHC5 (minimum hemolytic concentration causing 5% hemolysis of hRBCs) [7]
1 | CCCCCCCC(=O)N[C@@H](CCCCN)C(=O)N[C@@H](CCCNC(=N)N)C(=O)N[C@H](C(=O)N[C@H](C(=O)N[C@@H](CCC(N)=O)C(=O)N[C@@H](CCCNC(=N)N)C(=O)N[C@H](C(=O)N[C@@H](CCCCN)C(=O)N[C@@H](CC(=O)O)C(=O)N[C@@H](Cc1ccccc1)C(=O)N[C@@H](CC(C)C)C(=O)N[C@@H](CCCNC(=N)N)C(N)=O)[C@@H](C)CC)C(C)C)[C@@H](C)CC [II, C8^α-KR12-NH2] (Octanoyl-KRIVQRIKDFLR-NH2) | 4 µg/mL (≈ 2.36 µM) | 16 µg/mL (≈ 9.43 µM) | 8 µg/mL (≈ 4.71 µM) | 4 µg/mL (≈ 2.36 µM) | 4 µg/mL (≈ 2.36 µM) | 4 µg/mL (≈ 2.36 µM) | 4 µg/mL (≈ 2.36 µM) | 2 µg/mL (≈ 1.18 µM) | 4 µg/mL (≈ 2.36 µM) | 8 µg/mL (≈ 4.71 µM) | 64 µg/mL
2 | CCCCCCCC(=O)NCCCC[C@H](N)C(=O)N[C@@H](CCCNC(=N)N)C(=O)N[C@H](C(=O)N[C@H](C(=O)N[C@@H](CCC(N)=O)C(=O)N[C@@H](CCCNC(=N)N)C(=O)N[C@H](C(=O)N[C@@H](CCCCN)C(=O)N[C@@H](CC(=O)O)C(=O)N[C@@H](Cc1ccccc1)C(=O)N[C@@H](CC(C)C)C(=O)N[C@@H](CCCNC(=N)N)C(N)=O)[C@@H](C)CC)C(C)C)[C@@H](C)CC [III, C8^ε-KR12-NH2] (H-K(Octanoyl)RIVQRIKDFLR-NH2) | 4 µg/mL (≈ 2.36 µM) | 64 µg/mL (≈ 37.7 µM) | 32 µg/mL (≈ 18.9 µM) | 64 µg/mL (≈ 37.7 µM) | 32 µg/mL (≈ 18.9 µM) | 64 µg/mL (≈ 37.7 µM) | 32 µg/mL (≈ 18.9 µM) | 8 µg/mL (≈ 4.71 µM) | 64 µg/mL (≈ 37.7 µM) | 32 µg/mL (≈ 18.9 µM) | 
3 | CCCCCCCC(=O)N[C@@H](CCCCN)C(=O)N[C@@H](CCCCN)C(=O)N[C@@H](CCCNC(=N)N)C(=O)N[C@H](C(=O)N[C@H](C(=O)N[C@@H](CCC(N)=O)C(=O)N[C@@H](CCCNC(=N)N)C(=O)N[C@H](C(=O)N[C@@H](CCCCN)C(=O)N[C@@H](CC(=O)O)C(=O)N[C@@H](Cc1ccccc1)C(=O)N[C@@H](CC(C)C)C(=O)N[C@@H](CCCNC(=N)N)C(N)=O)[C@@H](C)CC)C(C)C)[C@@H](C)CC [IV, C8^α-Lys-KR12-NH2] (Octanoyl-KKRIVQRIKDFLR-NH2) | 4 µg/mL (≈ 2.19 µM) | 32 µg/mL (≈ 17.5 µM) | 16 µg/mL (≈ 8.77 µM) | 32 µg/mL (≈ 17.5 µM) | 16 µg/mL (≈ 8.77 µM) | 32 µg/mL (≈ 17.5 µM) | 128 µg/mL (≈ 70.1 µM) | 8 µg/mL (≈ 4.38 µM) | 64 µg/mL (≈ 35.1 µM) | 8 µg/mL (≈ 4.38 µM) | 256 µg/mL
4 | CCCCCCCC(=O)NCCCC[C@H](NC(=O)CCCCCCC)C(=O)N[C@@H](CCCNC(=N)N)C(=O)N[C@H](C(=O)N[C@H](C(=O)N[C@@H](CCC(N)=O)C(=O)N[C@@H](CCCNC(=N)N)C(=O)N[C@H](C(=O)N[C@@H](CCCCN)C(=O)N[C@@H](CC(=O)O)C(=O)N[C@@H](Cc1ccccc1)C(=O)N[C@@H](CC(C)C)C(=O)N[C@@H](CCCNC(=N)N)C(N)=O)[C@@H](C)CC)C(C)C)[C@@H](C)CC [IX, C8^α,C8^ε-KR12-NH2] (Octanoyl-K(Octanoyl)RIVQRIKDFLR-NH2) | 16 µg/mL (≈ 8.78 µM) | >512 µg/mL | >512 µg/mL | 512 µg/mL (≈ 281 µM) | 256 µg/mL (≈ 140 µM) | 256 µg/mL (≈ 140 µM) | 512 µg/mL (≈ 281 µM) |  | 256 µg/mL (≈ 140 µM) | 512 µg/mL (≈ 281 µM) | 
5 | CCCCCCCC(=O)NCCCC[C@H](N)C(=O)N[C@@H](CCCCN)C(=O)N[C@@H](CCCNC(=N)N)C(=O)N[C@H](C(=O)N[C@H](C(=O)N[C@@H](CCC(N)=O)C(=O)N[C@@H](CCCNC(=N)N)C(=O)N[C@H](C(=O)N[C@@H](CCCCN)C(=O)N[C@@H](CC(=O)O)C(=O)N[C@@H](Cc1ccccc1)C(=O)N[C@@H](CC(C)C)C(=O)N[C@@H](CCCNC(=N)N)C(N)=O)[C@@H](C)CC)C(C)C)[C@@H](C)CC [V, C8^ε-Lys-KR12-NH2] (H-K(Octanoyl)KRIVQRIKDFLR-NH2) | 4 µg/mL (≈ 2.19 µM) | 16 µg/mL (≈ 8.77 µM) | 16 µg/mL (≈ 8.77 µM) | 64 µg/mL (≈ 35.1 µM) | 32 µg/mL (≈ 17.5 µM) | 32 µg/mL (≈ 17.5 µM) | 64 µg/mL (≈ 35.1 µM) | 8 µg/mL (≈ 4.38 µM) | 64 µg/mL (≈ 35.1 µM) | 32 µg/mL (≈ 17.5 µM) | 256 µg/mL
6 | CCCCCCCC(=O)NCCCC[C@H](NC(=O)[C@H](CCCNC(=N)N)NC(=O)[C@H](CC(C)C)NC(=O)[C@H](Cc1ccccc1)NC(=O)[C@H](CC(=O)O)NC(=O)[C@H](CCCCN)NC(=O)[C@@H](NC(=O)[C@H](CCCNC(=N)N)NC(=O)[C@H](CCC(N)=O)NC(=O)[C@@H](NC(=O)[C@@H](NC(=O)[C@H](CCCNC(=N)N)NC(=O)[C@@H](N)CCCCN)[C@@H](C)CC)C(C)C)[C@@H](C)CC)C(N)=O [VI, KR12-Lys^ε(C8)-NH2] (H-KRIVQRIKDFLRK(Octanoyl)-NH2) | 4 µg/mL (≈ 2.19 µM) | 32 µg/mL (≈ 17.5 µM) | 32 µg/mL (≈ 17.5 µM) | 64 µg/mL (≈ 35.1 µM) | 32 µg/mL (≈ 17.5 µM) | 32 µg/mL (≈ 17.5 µM) | 64 µg/mL (≈ 35.1 µM) | 64 µg/mL (≈ 35.1 µM) | 32 µg/mL (≈ 17.5 µM) | 16 µg/mL (≈ 8.77 µM) | 
7 | CCCCCCCC(=O)NCCCC[C@H](NC(=O)[C@H](CC(C)C)NC(=O)[C@H](Cc1ccccc1)NC(=O)[C@H](CC(=O)O)NC(=O)[C@H](CCCCN)NC(=O)[C@@H](NC(=O)[C@H](CCCNC(=N)N)NC(=O)[C@H](CCC(N)=O)NC(=O)[C@@H](NC(=O)[C@@H](NC(=O)[C@H](CCCNC(=N)N)NC(=O)[C@@H](N)CCCCN)[C@@H](C)CC)C(C)C)[C@@H](C)CC)C(N)=O [VII, [Lys^ε(C8)]^12KR12-NH2] (H-KRIVQRIKDFLK(Octanoyl)-NH2) | 16 µg/mL (≈ 9.59 µM) | 64 µg/mL (≈ 38.3 µM) | 128 µg/mL (≈ 76.7 µM) | 64 µg/mL (≈ 38.3 µM) | 512 µg/mL (≈ 307 µM) | 512 µg/mL (≈ 307 µM) | 128 µg/mL (≈ 76.7 µM) | 64 µg/mL (≈ 38.3 µM) | 512 µg/mL (≈ 307 µM) | 32 µg/mL (≈ 19.2 µM) | 
